Measured values from patent publication US20140051679A1, “KINASE INHIBITORS AND METHOD OF TREATING CANCER WITH SAME” (UNIVERISTY HEALTH NETWORKS, priority 2011, published 2014).

How the values were obtained:
Aurora B = target: T1, Aurora B (Homo sapiens, UniProt Q96GD4); test: Aurora B inhibition assay (Z-Lyte); assay type: biochemical; details: 28 nM Aurora B, 128 μM ATP; read-out: IC50 Ranges Aurora B
T1 construct: purchased Invitrogen PV3970
Protocol: Aurora B inhibition was determined using the Z-Lyte assay kit from Invitrogen. The assay was performed using the recommended manufacturer's instructions with 128 μM ATP and 28 nM Aurora B (Invitrogen cat #PV3970). The % inhibition values were determined according to the manufacturer's directions and IC50 values were obtained using a non-linear 4 point logistic curve fit (XLfit4, IDBS)

[1] = tested on: Ovarian TICs, 2393A ovarian; test: Ovarian tumor-initiating cell growth inhibition (Alamar Blue); assay type: cell-based; details: 144 h, 6 days, read-out: GI50 range 2393A ovarian
Source text: Materials and Methods: Non-tissue or tissure cultured treated T-75 flask and 96-well plates were purchased from VWR. Vitamin B-27 supplement, MEM NEAA (minimum essential medium non essential amino acids), sodium pyruvate, L-glutamine, N2 supplement, penicillin-streptomycin and fungizone/amphotericin B were obtained from Invitrogen. Lipid mixture, heparin and EGF were purchased from Sigma; bFGF from BD Biosciences. Colon tumor initiating cells (TICs) were routinely maintained using non-tissue cultured treated T-75 flasks in DMEM:F12 medium containing 0.2XB-27 supplement, 4 ug/ml heparin, 1XMEM NEAA, 1× sodium pyruvate, 1 mM glutamine, 10 pg/ul bFGF, 20 pg/ul EGF, 1×N2 supplement, lipid mixture, penicillin-streptomycin and fungizone/amphotericin B. Ovarian TICs were routinely maintained using tissue cultured treated T-75 flasks in DMEM:F12 medium containing 1XB-27 supplement, 4 ug/ml heparin, 20 pg/ul bFGF, 20 pg/ul EGF and penicillin-streptomycin.
Compounds described herein were dissolved in DMSO and further diluted in cell culture medium for GI50 determination. Colon TICs were trypsinized and seeded into non-tissue cultured treated 96-well plates with 4,000 cells/well. After 24 h, compound was added into the cell culture at different concentrations, and the final concentration of DMSO was adjusted to 0.1%. Cells were then cultured at 37° C. for 9 days. Ovarian TICs were trypsinized and seeded into tissue cultured treated 96-well plates with 1,000 cells/well. After 24 h, compound was added into the cell culture at different concentrations, and the final concentration of DMSO was adjusted to 0.1%. Cells were then cultured at 37° C. for 6 days. Cell viability was assessed by Alamar Blue assay: 10 ul of Alamar Blue was added into each well. After 4 hours incubation at 37° C., fluorescence was recorded at excitation 544 and emission 590. GI50 (Growth inhibition) was calculated using GraphPad Prism 4.0 software.

[2] = tested on: MDA-MB-231 breast cancer cells; test: Cell growth inhibition, Sulforhodamine B assay, MDA-MB-231; assay type: cell-based; details: Homo sapiens, 120 h, 5 days culture, SRB assay, read-out: Cell Line GI50 Range MDA-MB-231
human TTK = target: T2, human TTK (Homo sapiens, UniProt P33981); test: TTK inhibition assay (indirect ELISA); assay type: biochemical; details: GST-TTK 0.68 nM, 16 μM ATP; read-out: IC50 Ranges TTK
T2 construct: amino terminal GST fusion of full length human TTK; purchased Invitrogen
T2 sequence (P33981 1-857): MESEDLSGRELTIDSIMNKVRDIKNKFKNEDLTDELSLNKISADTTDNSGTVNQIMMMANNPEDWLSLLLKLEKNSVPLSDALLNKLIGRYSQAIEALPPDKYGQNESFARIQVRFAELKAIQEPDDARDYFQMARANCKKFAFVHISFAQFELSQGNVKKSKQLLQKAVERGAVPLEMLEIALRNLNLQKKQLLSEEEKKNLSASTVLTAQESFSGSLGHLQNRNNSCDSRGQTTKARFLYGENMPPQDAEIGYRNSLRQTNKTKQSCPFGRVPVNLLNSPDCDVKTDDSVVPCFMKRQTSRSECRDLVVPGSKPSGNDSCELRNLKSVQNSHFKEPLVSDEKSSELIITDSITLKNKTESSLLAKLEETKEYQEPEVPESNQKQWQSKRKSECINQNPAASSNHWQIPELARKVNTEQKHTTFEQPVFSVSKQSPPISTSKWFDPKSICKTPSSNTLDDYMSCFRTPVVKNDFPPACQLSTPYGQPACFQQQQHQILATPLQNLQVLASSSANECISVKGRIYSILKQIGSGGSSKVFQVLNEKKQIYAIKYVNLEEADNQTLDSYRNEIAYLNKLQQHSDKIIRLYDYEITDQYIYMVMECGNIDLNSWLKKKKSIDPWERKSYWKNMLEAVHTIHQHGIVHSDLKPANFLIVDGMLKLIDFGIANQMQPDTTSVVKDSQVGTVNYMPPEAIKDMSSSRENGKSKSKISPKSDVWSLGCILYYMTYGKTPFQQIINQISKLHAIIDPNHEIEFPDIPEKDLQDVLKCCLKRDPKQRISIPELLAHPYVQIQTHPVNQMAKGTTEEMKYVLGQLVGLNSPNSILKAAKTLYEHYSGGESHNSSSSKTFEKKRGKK

[3] = tested on: Colon tumor initiating cells (TICs), 12 colon; test: Colon tumor-initiating cell growth inhibition (Alamar Blue); assay type: cell-based; details: 216 h, 9 days, read-out: GI50 range 12 colon
human PLK4 = target: T3, human PLK4 (Homo sapiens, UniProt O00444); test: PLK4 inhibition assay (indirect ELISA); assay type: biochemical; details: GST-PLK4 4 nM, 15 μM ATP; read-out: IC50 Ranges PLK4
T3 construct: amino terminal GST fusion of residues 1-391 of human PLK4; made in house; host or cells: E. coli
T3 sequence (O00444 1-391): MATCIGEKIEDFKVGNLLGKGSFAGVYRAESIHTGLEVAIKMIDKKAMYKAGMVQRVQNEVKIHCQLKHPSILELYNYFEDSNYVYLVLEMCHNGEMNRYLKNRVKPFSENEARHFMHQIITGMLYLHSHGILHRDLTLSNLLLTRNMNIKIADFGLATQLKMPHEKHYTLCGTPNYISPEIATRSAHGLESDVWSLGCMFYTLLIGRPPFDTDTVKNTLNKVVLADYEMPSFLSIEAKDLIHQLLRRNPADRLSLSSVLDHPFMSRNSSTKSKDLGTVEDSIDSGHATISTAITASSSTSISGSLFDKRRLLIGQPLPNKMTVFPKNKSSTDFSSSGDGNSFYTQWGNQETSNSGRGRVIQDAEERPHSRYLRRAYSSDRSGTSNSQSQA
Method in brief: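 Dephosphorylated GST-tagged human PLK4 (residues 1-391, E. coli), 4 nM, preincubated 15 min with compound, then reacted 30 min with 15 μM ATP on MBP-coated plates (50 mM HEPES pH 7.5, 10 mM MgCl2, 0.01% Brij 35). Phospho-MBP detected by antibody ELISA at 450 nm. Tested at 10 μM or 10-point titrations; IC50 from 4-parameter logistic fit.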

HT29 colon cancer cells = test: Cell growth inhibition, Sulforhodamine B assay, HT29; assay type: cell-based; details: Homo sapiens, HT-29, 120 h, 5 days culture, SRB assay, read-out: Cell Line GI50 Range HT29
[4] = tested on: MDA-MB-468 breast cancer cells; test: Cell growth inhibition, Sulforhodamine B assay, MDA-MB-468; assay type: cell-based; details: Homo sapiens, 120 h, 5 days culture, SRB assay, read-out: Cell Line GI50 Range MDA-MB-468
[5] = tested on: OVCAR-3 ovarian cancer cells; test: Cell growth inhibition, Sulforhodamine B assay, OVCAR-3; assay type: cell-based; details: Homo sapiens, 120 h, 5 days culture, SRB assay, read-out: Cell Line GI50 Range OVCAR-3
[6] = tested on: HCT116 colon cancer cells; test: Cell growth inhibition, Sulforhodamine B assay, HCT116; assay type: cell-based; details: Homo sapiens, HCT-116, 120 h, 5 days culture, SRB assay, read-out: Cell Line GI50 Range HCT116
[7] = tested on: PA-1 ovarian cancer cells; test: Cell growth inhibition, Sulforhodamine B assay, PA-1; assay type: cell-based; details: 120 h, 5 days culture, SRB assay, read-out: Cell Line GI50 Range PA-1

T1 sequence (Q96GD4 whole entry): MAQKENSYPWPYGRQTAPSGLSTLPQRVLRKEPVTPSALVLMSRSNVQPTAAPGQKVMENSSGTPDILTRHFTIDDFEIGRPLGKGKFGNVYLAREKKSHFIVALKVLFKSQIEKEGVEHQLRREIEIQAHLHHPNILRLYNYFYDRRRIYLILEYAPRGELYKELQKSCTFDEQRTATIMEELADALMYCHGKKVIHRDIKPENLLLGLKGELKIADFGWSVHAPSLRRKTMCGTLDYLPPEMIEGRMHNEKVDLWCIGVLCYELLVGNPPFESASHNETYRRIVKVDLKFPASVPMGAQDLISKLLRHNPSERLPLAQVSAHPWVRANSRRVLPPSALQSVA

CN1CCC(Oc2ccc(-c3n[nH]c4ccc(C(=O)NC(c5ccccc5Cl)C5CC5)cc34)cc2)CC1 (stereo not shown) [Example A150, N-((2-chlorophenyl)(cyclopropyl)methyl)-3-(4-((1-methylpiperidin-4-yl)oxy)phenyl)-1H-indazole-5-carboxamide]
IC50 (Aurora B): ≤ 5 µM
GI50 [1]: ≤ 5 µM
GI50 [2]: ≤ 5 µM
IC50 (human TTK): ≤ 5 µM
GI50 [3]: ≤ 5 µM
IC50 (human PLK4): ≤ 5 µM
GI50 (HT29 colon cancer cells): ≤ 5 µM
GI50 [4]: ≤ 5 µM
GI50 [5]: ≤ 5 µM
GI50 [6]: ≤ 5 µM
GI50 [7]: ≤ 5 µM

CC(C)C(NC(=O)c1ccc2[nH]nc(-c3ccc(OC4CCN(C)CC4)cc3)c2c1)c1ccccc1Cl (stereo not shown) [Example A144, N-(1-(2-chlorophenyl)-2-methylpropyl)-3-(4-((1-methylpiperidin-4-yl)oxy)phenyl)-1H-indazole-5-carboxamide]
IC50 (Aurora B): ≤ 5 µM
GI50 [1]: ≤ 5 µM
GI50 [2]: ≤ 5 µM
IC50 (human TTK): ≤ 5 µM
GI50 [3]: ≤ 5 µM
IC50 (human PLK4): ≤ 5 µM
GI50 (HT29 colon cancer cells): ≤ 5 µM
GI50 [4]: ≤ 5 µM
GI50 [5]: ≤ 5 µM
GI50 [6]: ≤ 5 µM
GI50 [7]: ≤ 5 µM

CN1CCC(Oc2ccc(-c3n[nH]c4ccc(C(=O)N[C@H](CCO)c5ccccc5)cc34)cc2)CC1 [Example A137, (R)—N-(3-hydroxy-1-phenylpropyl)-3-(4-((1-methylpiperidin-4-yl)oxy)phenyl)-1H-indazole-5-carboxamide]
IC50 (Aurora B): ≤ 5 µM
GI50 [1]: ≤ 5 µM
GI50 [2]: ≤ 5 µM
IC50 (human TTK): ≤ 5 µM
GI50 [3]: ≤ 5 µM
IC50 (human PLK4): ≤ 5 µM
GI50 (HT29 colon cancer cells): ≤ 5 µM
GI50 [4]: ≤ 5 µM
GI50 [5]: ≤ 5 µM
GI50 [6]: ≤ 5 µM
GI50 [7]: ≤ 5 µM

COCCN1CCC(Oc2ccc(-c3n[nH]c4ccc(C(=O)N[C@H](c5ccsc5)C5CC5)cc34)cc2)CC1 [Example A154]
IC50 (Aurora B): ≤ 5 µM
GI50 [1]: ≤ 5 µM
GI50 [2]: ≤ 5 µM
IC50 (human TTK): ≤ 5 µM
GI50 [3]: ≤ 5 µM
IC50 (human PLK4): ≤ 5 µM
GI50 (HT29 colon cancer cells): ≤ 5 µM
GI50 [4]: ≤ 5 µM
GI50 [5]: ≤ 5 µM
GI50 [6]: ≤ 5 µM
GI50 [7]: ≤ 5 µM

C[C@@H](NC(=O)c1ccc2[nH]nc(-c3ccc(OC4CCN(C)CC4)cc3)c2c1)c1ccccc1F [Example A134, (R)—N-(1-(2-fluorophenyl)ethyl)-3-(4-((1-methylpiperidin-4-yl)oxy)phenyl)-1H-indazole-5-carboxamide]
IC50 (Aurora B): ≤ 5 µM
GI50 [1]: ≤ 5 µM
GI50 [2]: ≤ 5 µM
IC50 (human TTK): ≤ 5 µM
GI50 [3]: ≤ 5 µM
IC50 (human PLK4): ≤ 5 µM
GI50 (HT29 colon cancer cells): ≤ 5 µM
GI50 [4]: ≤ 5 µM
GI50 [5]: 5 to 20 µM
GI50 [6]: ≤ 5 µM
GI50 [7]: ≤ 5 µM
